According to the NIST ThermoML archive (doi:10.1021/je0340755):

Assay: xn = mol fraction of the nth substance listed
Conditions: 101.3 kPa, Liquid; for viscosity: Capillary tube (Ostwald / Ubbelohde) method

CCC(O)CO (stereo not given) [1,2-butanediol] + O
Conditions	mass density, 298.15 K [kg/m3]	mass density, 308.15 K [kg/m3]	mass density, 318.15 K [kg/m3]	speed of sound, 298.15 K [m/s]	speed of sound, 308.15 K [m/s]	speed of sound, 318.15 K [m/s]	viscosity, 298.15 K [mPa·s]	viscosity, 308.15 K [mPa·s]	viscosity, 318.15 K [mPa·s]
x2 = 0.0471	999.56	992.15	984.63	1455.6	1426	1396.5	54.4	28.67	16.54
x2 = 0.1478	1001.36	993.92	986.4	1480.8	1443.9	1415	47.22	25.18	14.53
x2 = 0.2481	1003.09	995.73	988.13	1497.6	1452.8	1422.4	39.78	21.61	12.47
x2 = 0.3491	1005.12	997.81	990.15	1517.2	1474	1441.3	32.56	18.1	10.46
x2 = 0.443	1007.55	1000.17	992.53	1545.9	1496.6	1462.7	26.42	15.04	8.706
x2 = 0.4971	1009.14	1001.68	994.08	1564.2	1508.1	–	23.17	13.39	7.758
x2 = 0.5552	1010.88	1003.37	–	1581.1	1519.5	–	19.92	11.69	6.789
x2 = 0.6494	1013.49	1006.11	–	1600.3	1542.9	–	15.11	9.091	5.314
x2 = 0.7491	1015.73	1008.77	–	1622.2	1585.6	–	10.48	6.504	3.848
x2 = 0.8547	1016.98	1010.49	–	1666.2	1640.7	–	5.959	3.9	2.378
x2 = 0.9081	1015.65	1009.43	–	1670.6	1647.5	–	3.869	2.651	1.675
x2 = 0.9144	1015.26	1009.1	–	1667.8	1645.9	–	3.635	2.509	1.595
x2 = 0.9255	1014.39	1008.36	–	1660.6	1641.4	–	3.232	2.26	1.455
x2 = 0.9353	1013.39	1007.51	–	1651	1635.3	–	2.885	2.044	1.334
x2 = 0.9543	1010.65	1005.2	–	1623.1	1617.1	–	2.241	1.635	1.105
x2 = 0.9562	1010.3	1004.91	–	1619.5	1614.7	–	2.179	1.594	1.083
x2 = 0.9598	1009.61	1004.33	–	1612.5	1610	–	2.063	1.519	1.041
x2 = 0.97	1007.33	1002.44	–	1589.6	1594.4	–	1.743	1.308	0.923
x2 = 0.9806	1004.38	1000	–	1561	1574.5	–	1.425	1.094	0.804
x2 = 0.9902	1001.1	997.32	–	1531.6	1552.8	–	1.152	0.906	0.699
x2 = 0.9923	1000.29	996.67	–	1524.8	1547.5	–	1.095	0.865	0.677
x2 = 0.9956	998.96	995.58	–	1513.5	1538.9	–	1.006	0.802	0.642
